19 compounds from US9340493B2, “Hydroxamic acid derivatives useful as antibacterial agents” (Pfizer Inc., priority 2008, dated 2016) can be followed below.

Broadly, the IC50 is the concentration needed to halve the response being measured. Read a high IC50 as a need for much substance.

Experiment [1] deals with T1, Pseudomonas aeruginosa LpxC enzyme (Pseudomonas aeruginosa, UniProt P47205).
T1 construct: made in house; host or cells: E. coli
T1 sequence (P47205 1-303): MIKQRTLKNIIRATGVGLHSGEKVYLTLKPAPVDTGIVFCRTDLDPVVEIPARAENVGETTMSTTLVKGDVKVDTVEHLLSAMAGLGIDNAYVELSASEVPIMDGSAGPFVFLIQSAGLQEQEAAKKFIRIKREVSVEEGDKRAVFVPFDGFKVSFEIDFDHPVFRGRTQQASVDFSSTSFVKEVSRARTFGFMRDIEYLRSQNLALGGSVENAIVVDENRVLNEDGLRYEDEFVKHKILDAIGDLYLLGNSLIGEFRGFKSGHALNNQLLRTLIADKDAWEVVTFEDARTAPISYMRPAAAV
Briefly: IC50 assay, LpxC enzyme from P. aeruginosa. It counts as biochemical. The note with it: 0.5 nM enzyme, 25° C., pH 8.0, 20 min; ** = average of 2-8 assays. As to the method:
IC50 assay, LpxC enzyme from P. aeruginosa: IC50 determination in the LpxC enzyme assay was carried out in a similar manner to that described by S. A. Hyland et al., J. Bacteriology 1997, 179, 2029-2037. [See also T. Kline et al., J. Medicinal Chemistry 2002, 45, 3112-3129.] Briefly, Pseudomonas aeruginosa LpxC enzyme (0.5 nM) purified from E. coli-overexpressing bacteria was incubated at 25° C. in a final volume of 25 ul containing 0.5 uM UDP-3-O—(R-3-hydroxydecanoyl)-N—[^3H-acetyl]glucosamine (B. D. Maxwell and J. C. Bronstein, J. Labeled Compounds and Radiopharmaceuticals 2005, 48, 1049-1054), 1 mg/ml BSA, and 50 mM sodium phosphate buffer, pH 8.0 in the presence and absence of inhibitor compound. At the end of 20 min, 90 ul of a pre-mixed 3% suspension of activated charcoal in 100 mM sodium acetate, pH 7.5, was added to stop the enzyme reaction. The contents of the well were transferred to a filter plate and filtered, and an aliquot of the filtrate was quantitated by liquid scintillation spectrometry. A no-enzyme control was subtracted in order to eliminate background counts.

A further experiment relates to P. aeruginosa UI-18. Briefly: MIC determination, P. aeruginosa UI-18. The note with it: Pseudomonas aeruginosa, UI18; wild-type; * = arithmetic mean of 2-6 MIC determinations; read-out: MIC (ug/mL) P. aeruginosa UI-18. It counts as cell-based. How it is done: (§1) MIC determinations: The in vitro antibacterial activity of compounds described in the Examples was evaluated by minimum inhibitory concentration (MIC) testing according to Clinical and Laboratory Standards Institute (CLSI, formerly NCCLS) guidelines. See: Clinical and Laboratory Standards Institute. Methods for Dilution Antimicrobial Susceptibility Tests for Bacteria that Grow Aerobically; Approved Standard-Seventh Edition. CLSI document M7-A7 [ISBN 1-56238-587-9]. Clinical and Laboratory Standards Institute, 940 West Valley Road, Suite 1400, Wayne, Pa. 19087-1898 USA, 2006; also Clinical and Laboratory Standards Institute. Performance Standards for Antimicrobial Susceptibility Testing; Eighteenth Informational Supplement. CLSI document M100-S18 [ISBN1-56238-653-0]. Clinical and Laboratory Standards Institute.
(§2) The following bacterial strains were used:
P. aeruginosa UI-18: Wild-type;

A further experiment relates to P. aeruginosa PAO280. Nature of the experiment: MIC determination, P. aeruginosa PAO280. It counts as cell-based. The note with it: Pseudomonas aeruginosa, PAO280, read-out: MIC (ug/mL) P. aeruginosa PAO280. How it is done: as §1, §2
Pseudomonas aeruginosa PA0280: lacks efflux pumps MexAB-oprM, MexXY and MexZ

The subject of experiment [2] is Staphylococcus aureus ATCC 29213. Nature of the experiment: MIC determination, S. aureus ATCC 29213. The note with it: ATCC29213, CLSI quality control reference strain, * = arithmetic mean of 2-6 MIC determinations, read-out: MIC (ug/mL) S. aureus ATCC 29213. It counts as cell-based. How it is done: as §1, §2
Staphylococcus aureus ATCC 29213: CLSI quality control reference strain; and […]

In brackets after ≈: the same amount, converted by molar mass. Where only a bound is given, the exact number is not on record here.

`C[C@@](OCc1ccc(-c2ccccc2)cc1)(C(=O)NO)[C@@H](O)c1cc(COP(=O)(O)O)on1` [Example 47, trisodium {3-[(1S,2S)-2-(biphenyl-4-ylmethoxy)-1-hydroxy-2-methyl-3-(oxidoamino)-3-oxopropyl]isoxazol-5-yl}methyl phosphate] had an IC50 in experiment [1] of 0.00565 µM.
`CC(CO)(OCc1ccc(-c2ccc(-c3csnn3)cc2)cc1)C(=O)NO` (stereo not shown) [Example 59, N,3-dihydroxy-2-methyl-2-{[4′-(1,2,3-thiadiazol-4-yl)biphenyl-4-yl]methoxy}propanamide]: the MIC in the experiment with P. aeruginosa UI-18 was above 64 µg/mL; in the experiment on P. aeruginosa PAO280 it was 1 µg/mL (≈ 2.59 µM); in experiment [2], above 64 µg/mL. This compound also returned an IC50 in experiment [1] of 0.00402 µM.
For `COc1cccc(-c2ccc(COC(C)(CO)C(=O)NO)cc2)c1F` (stereo not shown) [Example 65, 2-[(2′-fluoro-3′-methoxybiphenyl-4-yl)methoxy]-N,3-dihydroxy-2-methylpropanamide], the MIC with P. aeruginosa UI-18 is 64 µg/mL (≈ 183 µM); with P. aeruginosa PAO280 it was 1 µg/mL (≈ 2.86 µM); in experiment [2], above 64 µg/mL. In experiment [1], this compound came in with an IC50 of 0.00579 µM.
For `Cc1ccc(CNC(=O)C(C)(OCc2ccc(-c3ccccc3)cc2)C(=O)NO)cc1` (stereo not shown) [Example 72, 2-(biphenyl-4-ylmethoxy)-N-hydroxy-2-methyl-N′-(4-methylbenzyl)malonamide], in that order: above 16 µg/mL, 4 µg/mL (≈ 9.56 µM), above 16 µg/mL and 0.0307 µM.
On the same counts, the results for `Cc1nnc(CCNC(=O)C(C)(OCc2ccc(-c3ccccc3)cc2)C(=O)NO)[nH]1` (stereo not shown) [Example 79, 2-(biphenyl-4-ylmethoxy)-N-hydroxy-2-methyl-N′-[2-(5-methyl-4H-1,2,4-triazol-3-yl)ethyl]malonamide] are 64 µg/mL (≈ 151 µM), 1 µg/mL (≈ 2.36 µM), above 64 µg/mL and 0.00288 µM.
On the same counts, the results for `Cc1cc(F)ccc1-c1ccc(COC(C)(CO)C(=O)NO)cc1` (stereo not shown) [Example 63, 2-[(4′-fluoro-2′-methylbiphenyl-4-yl)methoxy]-N,3-dihydroxy-2-methylpropanamide] are above 64 µg/mL, 4 µg/mL (≈ 12 µM), above 64 µg/mL and 0.0174 µM.
As to `CN(C)S(=O)(=O)c1ccc(-c2ccc(COC(C)(CO)C(=O)NO)cc2)cc1` (stereo not shown) [Example 61, 2-({4′-[(dimethylamino)sulfonyl]biphenyl-4-yl}methoxy)-N,3-dihydroxy-2-methylpropanamide], the MIC in the experiment on P. aeruginosa UI-18 was above 64 µg/mL; with P. aeruginosa PAO280, 16 µg/mL (≈ 39.2 µM); in experiment [2], above 64 µg/mL. For the same compound, half-maximal inhibition in experiment [1] (IC50) was put at 0.0602 µM.
As to `CC(OCc1ccc(-c2ccccc2)cc1)(C(=O)NO)C(=O)NC[C@@H]1CCCO1` (stereo partly drawn) [Example 75, 2-(biphenyl-4-ylmethoxy)-N-hydroxy-2-methyl-N′-[(2S)-tetrahydrofuran-2-ylmethyl]malonamide], the figures for the MIC (with P. aeruginosa UI-18; in the experiment with P. aeruginosa PAO280; in experiment [2]) were 64 µg/mL (≈ 161 µM), 1 µg/mL (≈ 2.51 µM) and above 64 µg/mL, respectively. This compound registered an IC50 in experiment [1] of 0.0126 µM.
On the same counts, the results for `Cc1n[nH]c(C)c1CNC(=O)C(C)(OCc1ccc(-c2ccccc2)cc1)C(=O)NO` (stereo not shown) [Example 78, 2-(biphenyl-4-ylmethoxy)-N-[(3,5-dimethyl-1H-pyrazol-4-yl)methyl]-N′-hydroxy-2-methylmalonamide] are 64 µg/mL (≈ 151 µM), 1 µg/mL (≈ 2.37 µM), above 64 µg/mL and 0.0055 µM.
On the same counts, the results for `CC(=O)NCCNC(=O)C(C)(OCc1ccc(-c2ccccc2)cc1)C(=O)NO` (stereo not shown) [Example 77, N-(2-acetamidoethyl)-2-(biphenyl-4-ylmethoxy)-N′-hydroxy-2-methylmalonamide] are 64 µg/mL (≈ 160 µM), 1 µg/mL (≈ 2.5 µM), above 64 µg/mL and 0.00612 µM.
On the same counts, the results for `CC(OCc1ccc(-c2ccccc2)cc1)(C(=O)NO)C(=O)NCCc1cscn1` (stereo not shown) [Example 76, 2-(biphenyl-4-ylmethoxy)-N-hydroxy-2-methyl-N′-[2-(1,3-thiazol-4-yl)ethyl]malonamide] are 64 µg/mL (≈ 150 µM), 0.5 µg/mL (≈ 1.18 µM), above 64 µg/mL and 0.00848 µM.
For the compound `CCN1CC(CNC(=O)C(C)(OCc2ccc(-c3ccccc3)cc2)C(=O)NO)CC1=O` (stereo not shown) [Example 82, 2-(biphenyl-4-ylmethoxy)-N-[(1-ethyl-5-oxopyrrolidin-3-yl)methyl]-N′-hydroxy-2-methylmalonamide], the MIC in the experiment on P. aeruginosa UI-18 is above 64 µg/mL; in the experiment with P. aeruginosa PAO280, 4 µg/mL (≈ 9.1 µM); in experiment [2] it was above 64 µg/mL. Also, the IC50 in experiment [1] stood at 0.0486 µM.
Consider `CC(OCc1ccc(-c2ccccc2)cc1)(C(=O)NO)C(=O)NCC1(O)CCCC1` (stereo not shown) [Example 68, 2-(biphenyl-4-ylmethoxy)-N-hydroxy-N′-[(1-hydroxycyclopentyl)methyl]-2-methylmalonamide], for which the figures for the MIC (in the experiment with P. aeruginosa UI-18; in the experiment with P. aeruginosa PAO280; in experiment [2]) were above 64 µg/mL, 4 µg/mL (≈ 9.7 µM) and above 64 µg/mL, respectively. The IC50 in experiment [1] was found to be 0.0955 µM.
For the compound `Cc1ncsc1CCNC(=O)C(C)(OCc1ccc(-c2ccccc2)cc1)C(=O)NO` (stereo not shown) [Example 80, 2-(biphenyl-4-ylmethoxy)-N-hydroxy-2-methyl-N′-[2-(4-methyl-1,3-thiazol-5-yl)ethyl]malonamide], the MIC in the experiment on P. aeruginosa UI-18 was 64 µg/mL (≈ 146 µM); in the experiment with P. aeruginosa PAO280 it was 0.5 µg/mL (≈ 1.14 µM); in experiment [2] it was above 64 µg/mL. Besides, inhibition in experiment [1] was half-maximal at 0.00899 µM (IC50).
Take `CC(CO)(OCc1ccc(-c2ccc(C3=NNC(=O)CC3)cc2)cc1)C(=O)NO` (stereo not shown) [Example 60, N,3-dihydroxy-2-methyl-2-{[4′-(6-oxo-1,4,5,6-tetrahydropyridazin-3-yl)biphenyl-4-yl]methoxy}propanamide]: the MIC with P. aeruginosa UI-18 was above 64 µg/mL; in the experiment on P. aeruginosa PAO280, 4 µg/mL (≈ 10.1 µM); in experiment [2] it was above 64 µg/mL. Moreover, in experiment [1], the IC50 was 0.0105 µM.
On to `CC(OCc1ccc(-c2ccccc2)cc1)(C(=O)NO)C(=O)NCCO` (stereo not shown) [Example 81, 2-(biphenyl-4-ylmethoxy)-N-hydroxy-N′-(2-hydroxyethyl)-2-methylmalonamide], for which the figures for the MIC (with P. aeruginosa UI-18; in the experiment on P. aeruginosa PAO280; in experiment [2]) were 64 µg/mL (≈ 179 µM), 1 µg/mL (≈ 2.79 µM) and above 64 µg/mL, respectively. Also, the IC50 in experiment [1] worked out at 0.0261 µM.
On the same counts, the results for `COCCNC(=O)C(C)(OCc1ccc(-c2ccccc2)cc1)C(=O)NO` (stereo not shown) [Example 74, 2-(biphenyl-4-ylmethoxy)-N-hydroxy-N′-(2-methoxyethyl)-2-methylmalonamide] are 64 µg/mL (≈ 172 µM), 1 µg/mL (≈ 2.69 µM), above 64 µg/mL and 0.0139 µM.
On to `Cn1cc(CCNC(=O)C(C)(OCc2ccc(-c3ccccc3)cc2)C(=O)NO)cn1` (stereo not shown) [Example 73, 2-(biphenyl-4-ylmethoxy)-N-hydroxy-2-methyl-N′-[2-(1-methyl-1H-pyrazol-4-yl)ethyl]malonamide], for which the MIC in the experiment on P. aeruginosa UI-18 was above 64 µg/mL; in the experiment on P. aeruginosa PAO280, 1 µg/mL (≈ 2.37 µM); in experiment [2] it was above 64 µg/mL. Further, the midpoint of inhibition in experiment [1], the IC50, lay at 0.0156 µM.
Regarding `CC(CO)(OCc1ccc(-c2cccc(F)c2)cc1)C(=O)NO` (stereo not shown) [Example 64, 2-[(3′-fluorobiphenyl-4-yl)methoxy]-N,3-dihydroxy-2-methylpropanamide], the MIC in the experiment with P. aeruginosa UI-18 is above 64 µg/mL; with P. aeruginosa PAO280, 4 µg/mL (≈ 12.5 µM); in experiment [2], above 64 µg/mL. Also, in experiment [1], it took 0.00757 µM to reach half-maximal inhibition (IC50).
